Reference: EP3551232B1, “STABLE F-DOPA FORMULATIONS AND USES THEREOF” (priority 2016, dated 2018)

How the values were obtained:
[1] = UV-Vis absorbance stability in sterile physiological solution; type: physicochemical
From the text: This behavior was further supported by monitoring the change in UV-Vis absorbance of a pH 6.4 sterile physiological solution containing F-DOPA. […]

[2] = amount of F-DOPA dissolved in the formulation compositions; type: physicochemical; settings: in the ND1, ND2 and ND3 compositions
Procedure: Optimum stability for F-DOPA in aqueous formulations is achieved by maintaining the pH at acidic values, by excluding oxygen and incorporating in the formula a chelating agent for metal ion initiators of free-radical oxidation reactions. […] In order to formulate F-DOPA at the optimum acidic pH range, the appropriate buffer was selected. Lactate buffer (1 mM, pH 5.0) was chosen to formulate the parenteral solution, firstly because lactic acid is currently used in intravenous solutions and is already present in commercial formulation and, secondly, because this solution has a pH value compatible with the direct infusion avoiding or minimizing the pain at the injection site. Finally, common methods for decelerating the initiation step require eliminating initiators and catalysts from the formulation. Metals ions can be sequestered by the use of chelators, such as EDTA, citric acid and tartaric acid. […] For comparison purposes the ND3 formulation, having the same commercially available formulation "master formula", was also prepared by solubilizing F-DOPA in an aqueous solution of 17.5 mM acetic acid (1.05 mg/mL, pH = 3.1). In order to mimic the commercial formulation, immediately before its use the pH of ND3 was adjusted to a higher pH value (measured pH = 7.2) by the addition of 100 µL per mL of a sterile solution of 1 M (84 mg/mL) sodium bicarbonate. […]

[3] = system: mouse skeletal muscle fibers; experiment: cell viability assay, fiber counting (mortality rate); settings: Mus musculus
Procedure: (§1) Single fibers were isolated from the Flexor Digitorum Brevis (FDB) muscles dissected from male C57BL6 mice (N° of mice = 3). Isolated fibers were obtained by incubating the FDB muscles with Dulbecco's modified Eagle's medium (DMEM+) solution composed by IX antibiotics (1%), L-glutamine (1%), FBS (10%) (EuroClone, S.p.A. Milan, Italy) enriched with 0.3 mg/ml collagenase type XI-S (Sigma Chemical Co.).
(§2) For "in vitro" cell viability tests, the F-DOPA powder was directly solubilized in the complete cell culture medium (DMEM+). Stock solutions of ND1, ND2 and ND3 formulations were prepared at the concentration of 10 mg/ml. Microliter amounts of the stock solutions were then added to DMEM as needed, to obtain the final concentrations.
(§3) The fibers were plated, counted under a microscope, and incubated for 3h with increasing concentrations of F-DOPA, ND1, ND2 and ND3 formulations and an imaging analysis was then performed. At the end of the incubation time, the cytotoxicity expressed as mortality rate with respect to the control condition was evaluated by counting the fibers before and after the incubation period.
(§4) The mortality rate of the fibers and cells was calculated by the following equation: [(Ntreated/NCTRL)×100]−100 [formula] where Ntreated is the number of the treated cells and NCTRL is the number of untreated cells.
(§5) The following three parametric logistic function was used to fit the concentrationmortality data of different F-DOPA formulations: percentage change of the mortality rate(%) = Emax ((1+EC50/DOSE))^slope [formula] where Emax, is the maximal drug effect; EC50, is the concentration needed to cause the 50% percent change of the maximal effect; DOSE, is the applied concentration; slope, is the hill slope of the curve (SIGMAPlot 10.0, Systat Software, Inc.).

[4] = as above; settings: male, C57BL6, mouse
Procedure: as §1, §2, §3, §4, §5

[5] = enantioselective HPLC (optical stability, racemization); type: physicochemical; settings: 4 mg/mL, 24 h at both 25 and 45 °C, sterile perfusion solution at pH 6.0
Procedure: The HPLC system used to check the chemical stability of F-DOPA, related to its possible oxidation and racemization, consisted of a Waters Associates (Milford, MA, USA) model 1515 equipped with an isocratic pump, a Waters 2487 UV-vis detector, and the Breeze Software to analyze the chromatographic data. The HPLC analysis were performed on a reverse-phase column (Agilent Zorbax SB-Aq C8; 150 x 4.6 mm - 5 µm) kept at room temperature using detection wavelengths of 200 and 280 nm. The mobile phase consisted of 6.9 g/L solution of sodium dihydrogen phosphate adjusted to pH 2.4 with a 4.8 g/L solution of phosphoric acid, and the flow rate was 1 mL/min. The standard injection volume was 20 µL. […] To evaluate optical stability of F-DOPA, chromatograms were recorded on a teicoplanin aglycone-based chiral stationary phase (250 × 4.6 mm, particle size 5 µm, pore size 8 nm) CHIROBIOTIC (ASTEC, Whippany, NJ, USA), by eluting with a mixture 80% acetonitrile and 20% water, at a flow rate of 1 mL/min and a temperature of 25 °C.

[6] = in situ FT-IR monitoring of F-DOPA degradation in aqueous solution; type: physicochemical
Procedure: Aimed at better understanding the nature of the F-DOPA degradation products, the progress of the oxidation of F-DOPA was investigated by in situ FT-IR experiments at pH 8.0 and 5.15 at 25 °C (Figure 3).
Nevertheless, an overlapping of the carbonyl and carboxyl groups in the range 1670-1650 cm^-1 of the postulated o-quinone derivatives (Scheme 1) should occur in aqueous solution. However, similar o-quinone species show typical bands at 1660, 1480 and 1380 cm^-1, and are known to be very unstable turning black the solution upon standing. […] Thus, in situ IR experiments confirm the long-time stability of F-DOPA in acidic conditions (pH < 5.15) and the high propensity to undergo degradation under basic conditions. The pH-rate profile was carried out in order to obtain kinetic data.
The degradation pathway and the progress of the F-DOPA oxidation in aqueous solutions were further investigated by in situ FT-IR experiments at pH 8.0 and 5.15 at 25 °C. The experiments were carried out using a Mettler-Toledo ReactIR 4000 and Ic15 instruments equipped with a diamond-tipped (DiComp®) probe (Spectra elaborated with ConcIR® software), monitoring the C=O stretching of the F-DOPA and following new absorptions likely related to oxidized products (Castagnolo, D. et al. 2015; Mansueto, R. et al 2014). In a Schlenk tube equipped with a stirring bar and the React-IR probe, a 0.02 M F-DOPA aqueous solution at pH 5.15 was introduced via syringe at room temperature. Reference spectra for the pure solvent and F-DOPA were collected separately before starting the experiments. The solution was stirred for 10 min, to verify the stability of the readout, and spectra collected every 30 sec. The solution was then stirred for 24 h and constantly monitored by IR spectroscopy.

Structure (SMILES): N[C@@H](Cc1cc(O)c(O)cc1F)C(=O)O [F-DOPA, (2S)-2-Amino-3-(6-fluoro-3,4-dihydroxyphenyl)propanoic acid]
- decrease in F-DOPA initial concentration ([1]; pH 6.4, degassed sterile 0.9% NaCl, 1 to 4 mg/mL, 25 or 45 °C, 6 h, absorbance at 298 nm): less than 5%
- colour of sample ([1]; pH 6.4, sterile 0.9% NaCl, after 24 h incubation): pale pink color
- F-DOPA dissolved per mL [2]: 10 mg/mL
- Emax [3]: 100%
- EC50 ([3]; 3 h): 185 µM
- mortality at 3 h, 0.02 mg/ml [4]: < 15%
- mortality at 3 h, 0.05 mg/ml [4]: > 50%
- racemization [5]: no racemization occurs
- loss of vC=O absorbance ([6]; buffer at pH = 8.0, within 2 h, 25 °C): 10%
- additional peaks in the range 1800-1200 cm^-1 (FT-IR) ([6]; pH 5.15, after 16 h, 25 °C): no additional peaks
- appearance of the transparent aqueous solution ([6]; stirring at pH = 8.0 for 24 h): turned to black
